Measurements reported in the OligoGym collection.
After the bases stand the sugars from the 5' end (letter, count) and the backbone: PS all phosphorothioate, else s phosphorothioate and o phosphodiester by linkage. Methylation of C is not given here. e = 2'-O-(2-methoxyethyl) (MOE); k = constrained ethyl (cEt); d = 2'-deoxy (DNA); m = 2'-O-methyl

Biological target: HSD17B13
Settings: ASO, HepaRG

Row | Sequence | target mRNA inhibition (1 µM) [%] | further results
1 | ACTGATACATACCACT (sugars k3 d10 k3, PS) | 52 | 
2 | ACTGCTGCTAGTGCCA (sugars k3 d1 m1 d8 k3, PS) | 64 | 
3 | ACTGCTGCTAGTGCCA (sugars k3 d10 k3, PS) | 47 | 
4 | ACTGGATGGATTTCTC (sugars k3 d10 k3, PS) | 83 | target mRNA inhibition (0.02 µM): 9%; target mRNA inhibition (0.078 µM): 20%; target mRNA inhibition (0.313 µM): 45%; target mRNA inhibition (1.25 µM): 60%; target mRNA inhibition (5 µM): 88%
5 | ACTTACCAATATGGGA (sugars k3 d10 k3, PS) | 0 | 
6 | ACTTCACCAACGACTC (sugars k3 d10 k3, PS) | 15 | 
7 | ACTTGAACAGTCTTAA (sugars k3 d10 k3, PS) | 63 | 
8 | ACTTGATCTCTTAGCT (sugars k3 d1 m1 d8 k3, PS) | 39 | 
9 | ACTTGATCTCTTAGCT (sugars kkdddddddddkekek, PS) | 62 | 
10 | AGAAAGTTCATTCGAA (sugars k3 d10 k3, PS) | 61 | 
11 | AGAAATTCACCTTGAC (sugars k3 d1 m1 d8 k3, PS) | 9 | 
12 | AGAAATTCACCTTGAC (sugars k3 d9 k3 e1, PS) | 7 | 
13 | AGAAATTCACCTTGAC (sugars k3 d10 k3, PS) | 39 | 
14 | AGAAATTCACCTTGAC (sugars kkdddddddddkekek, PS) | 33 | 
15 | AGAAGATATTATCAGC (sugars k3 d10 k3, PS) | 64 | 
16 | AGAATACGCTGAGAGT (sugars k3 d10 k3, PS) | 56 | 
17 | AGAATAGGAGAGTCTT (sugars k3 d10 k3, PS) | 64 | 
18 | AGACAAGAGTTCTTGC (sugars k3 d10 k3, PS) | 30 | 
19 | AGACAATACAGGATAG (sugars k3 d10 k3, PS) | 15 | 
20 | AGACAGACCAAGTAGC (sugars k3 d10 k3, PS) | 21 | 
21 | AGACAGGTAATTAATC (sugars k3 d10 k3, PS) | 29 | 
22 | AGACTTCTTACGACTT (sugars k3 d10 k3, PS) | 41 | 
23 | AGAGCGATAGATCTCT (sugars k3 d10 k3, PS) | 8 | 
24 | AGAGGATAGTCCATGC (sugars k3 d1 m1 d8 k3, PS) | 53 | 

Row | Sequence | target mRNA inhibition (1 µM) [%] | further results
25 | AGAGGATAGTCCATGC (sugars k3 d9 k3 e1, PS) | 78 | target mRNA inhibition (0.02 µM): 0%; target mRNA inhibition (0.078 µM): 3%; target mRNA inhibition (0.313 µM): 40%; target mRNA inhibition (1.25 µM): 50%; target mRNA inhibition (5 µM): 44%
26 | AGAGGATAGTGAACAT (sugars k3 d10 k3, PS) | 59 | 
27 | AGAGGCTAGGGAAATC (sugars k3 d1 m1 d8 k3, PS) | 48 | 
28 | AGAGTCGGTCACCTTT (sugars kkdddddddddkekek, PS) | 61 | 
29 | AGAGTTGCACCGTTTT (sugars k3 d10 k3, PS) | 76 | target mRNA inhibition (0.02 µM): 5%; target mRNA inhibition (0.078 µM): 11%; target mRNA inhibition (0.313 µM): 40%; target mRNA inhibition (1.25 µM): 81%; target mRNA inhibition (5 µM): 87%
30 | AGATAAAGCTGCCTGC (sugars k3 d10 k3, PS) | 48 | 
31 | AGCAGAATTGTGAACG (sugars kkdddddddddkekek, PS) | 31 | 
32 | AGCATTCATCAGATGT (sugars k3 d10 k3, PS) | 83 | target mRNA inhibition (0.02 µM): 0%; target mRNA inhibition (0.078 µM): 12%; target mRNA inhibition (0.313 µM): 40%; target mRNA inhibition (1.25 µM): 65%; target mRNA inhibition (5 µM): 56%
33 | AGCATTCCATGATTAA (sugars k3 d10 k3, PS) | 47 | 
34 | AGCATTGATTCGAAAC (sugars k3 d10 k3, PS) | 70 | 
35 | AGCCAGTACAGTTCCT (sugars k3 d9 k3 e1, PS) | 59 | 
36 | AGCTAACTCAGGCTGT (sugars k3 d10 k3, PS) | 14 | 
37 | AGCTCCAGTAATGAGA (sugars k3 d10 k3, PS) | 26 | 
38 | AGCTTATCGAGTTTAG (sugars k3 d10 k3, PS) | 54 | 
39 | AGCTTTGCAGCATTGA (sugars k3 d10 k3, PS) | 62 | 
40 | AGCTTTTGTCCACCTT (sugars kkdddddddddkekek, PS) | 62 | 
41 | AGCTUTTGTCCACCTT (sugars k3 d1 m1 d8 k3, PS) | 72 | 
42 | AGGAAATATAGAGGGT (sugars k3 d10 k3, PS) | 54 | 
43 | AGGATACCTGAAAAGC (sugars k3 d10 k3, PS) | 81 | target mRNA inhibition (0.02 µM): 13%; target mRNA inhibition (0.078 µM): 23%; target mRNA inhibition (0.313 µM): 54%; target mRNA inhibition (1.25 µM): 70%; target mRNA inhibition (5 µM): 88%
44 | AGGATAGTCCATGCAA (sugars k3 d9 k3 e1, PS) | 61 | 
45 | AGGATAGTCCATGCAA (sugars k3 d10 k3, PS) | 64 | 
46 | AGGATTAATCATGGGA (sugars k3 d10 k3, PS) | 37 | 
47 | AGGATTAATTCCCTTC (sugars k3 d10 k3, PS) | 19 | 
48 | AGGCAAAGATCTGGCC (sugars k3 d10 k3, PS) | 7 | 

Row | Sequence | target mRNA inhibition (1 µM) [%] | further results
49 | AGGCATTAGATGGTAA (sugars k3 d10 k3, PS) | 51 | 
50 | AGGCTAGGGAAATCTT (sugars kkdddddddddkekek, PS) | 45 | 
51 | AGGCTGTAAGAGTCAG (sugars kkdddddddddkekek, PS) | 38 | 
52 | AGGTAAACTAAAGTAC (sugars k3 d10 k3, PS) | 6 | 
53 | AGGTATGTCATACTTC (sugars k3 d10 k3, PS) | 5 | 
54 | AGGTUGAGATAAAGCT (sugars k3 d1 m1 d8 k3, PS) | 58 | 
55 | AGTAAATTGAATAGCC (sugars k3 d10 k3, PS) | 39 | 
56 | AGTAATGAGAACAATC (sugars k3 d10 k3, PS) | 45 | 
57 | AGTAATTGCATCTGCT (sugars k3 d10 k3, PS) | 42 | 
58 | AGTACAGTTCCTTTTC (sugars k3 d9 k3 e1, PS) | 59 | 
59 | AGTACAGTTCCTTTTC (sugars k3 d10 k3, PS) | 69 | 
60 | AGTAGAGAGCATAAGT (sugars k3 d10 k3, PS) | 52 | 
61 | AGTAGGAGTAGATGAT (sugars k3 d10 k3, PS) | 0 | 
62 | AGTAGTAATTCTAAAC (sugars k3 d10 k3, PS) | 23 | 
63 | AGTATGTGAACTCCGT (sugars k3 d10 k3, PS) | 81 | target mRNA inhibition (0.02 µM): 0%; target mRNA inhibition (0.078 µM): 5%; target mRNA inhibition (0.313 µM): 30%; target mRNA inhibition (1.25 µM): 67%; target mRNA inhibition (5 µM): 86%
64 | AGTCCATGCAAAAGCA (sugars k3 d9 k3 e1, PS) | 80 | target mRNA inhibition (0.02 µM): 1%; target mRNA inhibition (0.078 µM): 15%; target mRNA inhibition (0.313 µM): 43%; target mRNA inhibition (1.25 µM): 74%; target mRNA inhibition (5 µM): 85%
65 | AGTCCATGCAAAAGCA (sugars k3 d10 k3, PS) | 77 | target mRNA inhibition (0.02 µM): 1%; target mRNA inhibition (0.078 µM): 14%; target mRNA inhibition (0.313 µM): 38%; target mRNA inhibition (1.25 µM): 55%; target mRNA inhibition (5 µM): 78%
66 | AGTCCATGCAAAAGCA (sugars kkdddddddddkekek, PS) | 52 | 
67 | AGTGAACATACATTGT (sugars k3 d10 k3, PS) | 48 | 
68 | AGTGCATCTTAAGATA (sugars k3 d9 k3 e1, PS) | 12 | 
69 | AGTGCCAAACCAATGT (sugars k3 d1 m1 d8 k3, PS) | 24 | 
70 | AGTGCCAAACCAATGT (sugars k3 d10 k3, PS) | 62 | 
71 | AGTTAGTATAGTTATC (sugars kkdddddddddkekek, PS) | 47 | 
72 | AGTTATTAGAAGTCAG (sugars k3 d10 k3, PS) | 54 | 

Row | Sequence | target mRNA inhibition (1 µM) [%] | further results
73 | AGTTATTAGAAGTCAG (sugars kkdddddddddkekek, PS) | 42 | 
74 | AGTTTAGAAGTCAAAC (sugars k3 d10 k3, PS) | 23 | 
75 | AGTTTATATGGATTTG (sugars k3 d10 k3, PS) | 67 | 
76 | ATAACCTAATAACTAC (sugars k3 d10 k3, PS) | 26 | 
77 | ATAACTGAGCTAGACA (sugars k3 d10 k3, PS) | 71 | 
78 | ATAATAATAGCTCTAT (sugars k3 d10 k3, PS) | 1 | 
79 | ATAATGGGCAGAGCTG (sugars k3 d10 k3, PS) | 53 | 
80 | ATACAGGCCATAATCT (sugars k3 d10 k3, PS) | 0 | 
81 | ATACGACTTCCTTCTA (sugars k3 d10 k3, PS) | 44 | 
82 | ATACTAATGTCCAAGG (sugars k3 d10 k3, PS) | 89 | target mRNA inhibition (0.02 µM): 12%; target mRNA inhibition (0.078 µM): 43%; target mRNA inhibition (0.313 µM): 94%; target mRNA inhibition (1.25 µM): 84%
83 | ATACTTTTCCGTCTCA (sugars k3 d10 k3, PS) | 90 | target mRNA inhibition (0.02 µM): 10%; target mRNA inhibition (0.078 µM): 41%; target mRNA inhibition (0.313 µM): 71%; target mRNA inhibition (1.25 µM): 90%
84 | ATAGAGGGTCCACTTT (sugars k3 d10 k3, PS) | 21 | 
85 | ATAGAGTCGGTCACCT (sugars k3 d10 k3, PS) | 60 | 
86 | ATAGCAAGCCAACAGA (sugars k3 d1 m1 d8 k3, PS) | 1 | 
87 | ATAGCAAGCCAACAGA (sugars k3 d9 k3 e1, PS) | 30 | 
88 | ATAGTCCATGCAAAAG (sugars k3 d9 k3 e1, PS) | 29 | 
89 | ATAGTTCAAATTGGAT (sugars k3 d10 k3, PS) | 48 | 
90 | ATAGUCCATGCAAAAG (sugars k3 d1 m1 d8 k3, PS) | 57 | 
91 | ATATACGATGGAACAA (sugars k3 d10 k3, PS) | 0 | 
92 | ATATAGAGGGTCCACT (sugars k3 d10 k3, PS) | 18 | 
93 | ATATATCCTTCCTTGG (sugars k3 d10 k3, PS) | 20 | 
